Source: patent US20260070899A1, “N-(2-(4-CYANOTHIAZOLIDIN-3-YL)-2-OXOETHYL)-QUINOLINE-4-CARBOXAMIDES” (AstraZeneca AB, priority 2022, published 2026)

What was measured:
[1] = biological target: T1, Prolyl endopeptidase, Prolyl Oligopeptidase (hPREP) (Homo sapiens, UniProt P48147); assay: biochemical
T1 sequence (P48147 1-710): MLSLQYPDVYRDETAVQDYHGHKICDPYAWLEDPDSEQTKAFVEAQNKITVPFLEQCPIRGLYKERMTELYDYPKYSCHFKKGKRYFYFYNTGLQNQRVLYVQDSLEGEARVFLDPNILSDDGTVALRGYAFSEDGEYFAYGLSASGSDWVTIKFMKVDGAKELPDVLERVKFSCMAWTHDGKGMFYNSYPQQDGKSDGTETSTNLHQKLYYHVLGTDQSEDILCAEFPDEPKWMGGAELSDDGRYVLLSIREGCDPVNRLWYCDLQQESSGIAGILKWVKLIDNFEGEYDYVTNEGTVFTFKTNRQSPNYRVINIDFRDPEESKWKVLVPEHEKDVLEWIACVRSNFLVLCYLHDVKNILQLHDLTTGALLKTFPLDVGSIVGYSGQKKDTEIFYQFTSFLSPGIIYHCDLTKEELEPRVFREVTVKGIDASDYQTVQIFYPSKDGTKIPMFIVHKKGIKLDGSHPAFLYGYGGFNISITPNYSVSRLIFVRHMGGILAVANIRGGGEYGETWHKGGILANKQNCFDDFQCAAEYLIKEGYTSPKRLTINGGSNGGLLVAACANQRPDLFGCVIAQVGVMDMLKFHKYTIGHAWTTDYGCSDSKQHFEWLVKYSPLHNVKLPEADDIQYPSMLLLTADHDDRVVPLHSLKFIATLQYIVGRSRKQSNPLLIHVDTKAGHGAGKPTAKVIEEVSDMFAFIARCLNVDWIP
Description: Compounds were tested in a biochemical inhibition assay using Prolyl endopeptidase, Prolyl Oligopeptidase (hPREP) enzyme at 0.6 nM FAC (R&D Systems, 4308-SE) and the substrate Z-Gly-Pro-amino-methylcoumarin (Bachem, I-1145) at 50 μM FAC. 384 Low volume black plates (Greiner #784076) were used. […] Plates were incubated for 15 min at rt in dark. 4 μL, 100 μM substrate solution (25 mM Tris HCl, 250 mM NaCl, 0.01% Triton X-100, 5 mM Glutathione, pH 7.5) was added to each well. Plates were centrifuged at 1000 rpm and incubated for 20 min at rt in dark. The plates were read on a PHERAstar® reader with excitation 340 nm and emission 460 nm. Data were analyzed in Genedata Screener®. IC50 values were determined by plotting % inhibition versus log compound concentration and using a one site dose response model.

hFAP (M39-A757) = biological target: T2, hFAP (M39-A757) (Homo sapiens, UniProt Q12884); assay: biochemical;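 note: surface plasmon resonance direct binding to hFAP amine-coupled on a sensor chip, rising compound concentrations by single cycle kinetics, Kd from global fit of interaction models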
T2 sequence (Q12884 39-757): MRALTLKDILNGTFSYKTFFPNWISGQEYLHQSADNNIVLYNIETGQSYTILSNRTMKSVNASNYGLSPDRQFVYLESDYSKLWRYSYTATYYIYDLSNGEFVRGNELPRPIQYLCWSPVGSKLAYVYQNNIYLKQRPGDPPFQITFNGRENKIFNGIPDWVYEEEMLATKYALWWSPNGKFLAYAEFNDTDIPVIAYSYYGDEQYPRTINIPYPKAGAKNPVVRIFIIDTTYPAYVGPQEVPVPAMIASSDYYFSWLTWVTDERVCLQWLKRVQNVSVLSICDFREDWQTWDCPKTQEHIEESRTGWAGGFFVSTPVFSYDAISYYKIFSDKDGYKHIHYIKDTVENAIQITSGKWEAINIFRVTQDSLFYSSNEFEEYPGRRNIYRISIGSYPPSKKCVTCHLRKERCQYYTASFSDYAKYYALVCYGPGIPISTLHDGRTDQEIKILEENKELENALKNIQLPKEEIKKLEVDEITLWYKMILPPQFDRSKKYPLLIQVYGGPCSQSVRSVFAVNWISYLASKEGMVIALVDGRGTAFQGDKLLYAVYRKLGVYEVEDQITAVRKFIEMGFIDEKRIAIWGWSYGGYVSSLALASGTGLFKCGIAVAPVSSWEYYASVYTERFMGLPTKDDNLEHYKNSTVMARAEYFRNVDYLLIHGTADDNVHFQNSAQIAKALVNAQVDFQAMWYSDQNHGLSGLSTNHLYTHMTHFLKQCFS
Description: Compounds were tested in a direct binding assay using 8K surface plasmon resonance biosensor (GE Healthcare) at 20° C. Immobilization of hFAP (M39-A757) on a CMD200M sensor chip (Xantec) was performed using standard amine coupling procedure in immobilization buffer (10 mM HEPES, 150 mM NaCl, 0.05% Tween20, pH 7.4). The surface was washed with 10 mM aq NaOH, 1M NaCl before being activated with EDC/NHS (GE Healthcare), followed by immobilization of hFAP (in 10 mM Acetate pH 5.0). Finally, the surface was deactivated by ethanolamine. Immobilization levels of hFAP were around 4000-6000 RU. The reference spot was treated as described, omitting the injection of hFAP. Compound concentration series were injected over the immobilized protein in increasing concentrations (2-500 nM) using single cycle kinetics in running buffer (20 mM TRIS, 150 mM NaCl, 0.05% Tween20, 1% DMSO, pH 7.4). Interaction models were fitted globally to the experimental traces, enabling determination of kon, koff and Kd.

Compound	IC50 [1] [nM]	Kd (hFAP (M39-A757)) [nM]
CC(C)(O)c1ccc2nccc(C(=O)NCC(=O)N3CSC[C@H]3C#N)c2c1 [Example 16, (R)—N-(2-(4-Cyanothiazolidin-3-yl)-2-oxoethyl)-6-(2-hydroxypropan-2-yl)quinoline-4-carboxamide]	640	0.23
COC(C)(C)c1ccc2nccc(C(=O)NCC(=O)N3CSC[C@H]3C#N)c2c1 [Example 18, (R)—N-(2-(4-Cyanothiazolidin-3-yl)-2-oxoethyl)-6-(2-methoxypropan-2-yl)quinoline-4-carboxamide]	860	0.43
N#C[C@@H]1CSCN1C(=O)CNC(=O)c1ccnc2ccc(C3CCOCC3)cc12 [Example 20, (R)—N-(2-(4-Cyanothiazolidin-3-yl)-2-oxoethyl)-6-(tetrahydro-2H-pyran-4-yl)quinoline-4-carboxamide]	1000	0.056
N#C[C@@H]1CSCN1C(=O)CNC(=O)c1ccnc2ccc(C3(O)CCOCC3)cc12 [Example 15, (R)—N-(2-(4-Cyanothiazolidin-3-yl)-2-oxoethyl)-6-(4-hydroxy-tetrahydro-2H-pyran-4-yl)quinoline-4-carboxamide]	1100	0.068
CC(C)(F)COc1ccc2nccc(C(=O)NCC(=O)N3CSC[C@H]3C#N)c2c1 [Example 3, (R)—N-(2-(4-Cyanothiazolidin-3-yl)-2-oxoethyl)-6-(2-fluoro-2-methylpropoxy)quinoline-4-carboxamide]	950	0.062

Further lines, results first:

IC50 [1] [nM]	Kd (hFAP (M39-A757)) [nM]	Compound
120	0.62	N#C[C@@H]1CSCN1C(=O)CNC(=O)c1ccnc2ccc(C3(C#N)CC3)cc12 [Example 70, (R)-6-(1-Cyanocyclopropyl)-N-(2-(4-cyanothiazolidin-3-yl)-2-oxoethyl)quinoline-4-carboxamide]
1100	0.059	CCOC1(c2ccc3nccc(C(=O)NCC(=O)N4CSC[C@H]4C#N)c3c2)CCOCC1 [Example 23, (R)—N-(2-(4-Cyanothiazolidin-3-yl)-2-oxoethyl)-6-(4-ethoxytetrahydro-2H-pyran-4-yl)quinoline-4-carboxamide]
1000	0.022	CO[C@H]1CC[C@H](c2ccc3nccc(C(=O)NCC(=O)N4CSC[C@H]4C#N)c3c2)CC1 (single isomer, unassigned) [Example 78, N-(2-((R)-4-Cyanothiazolidin-3-yl)-2-oxoethyl)-6-((1r,4R*)-4-methoxycyclohexyl)quinoline-4-carboxamide]
910	0.35	N#C[C@@H]1CSCN1C(=O)CNC(=O)c1ccnc2ccc(C3CCCCO3)cc12 (mixture of isomers) [Example 32, N-(2-((R)-4-Cyanothiazolidin-3-yl)-2-oxoethyl)-6-((RS)-tetrahydro-2H-pyran-2-yl)quinoline-4-carboxamide]
